Results reported in ChEMBL document CHEMBL5465560, “Selectivity Literature for EUbOPEN Chemogenomic Library” (2024).

Tests used:
[1] = molecular target: T1, Dual specificity mitogen-activated protein kinase kinase 4 (Homo sapiens) (UniProt P45985); test: Selectivity interaction (Kinase panel (KiNativ target engagement assay in Jurkat cells)) EUB0001635a MAP2K4; type: cell-based; details: at 1 µM
T1 sequence (whole entry): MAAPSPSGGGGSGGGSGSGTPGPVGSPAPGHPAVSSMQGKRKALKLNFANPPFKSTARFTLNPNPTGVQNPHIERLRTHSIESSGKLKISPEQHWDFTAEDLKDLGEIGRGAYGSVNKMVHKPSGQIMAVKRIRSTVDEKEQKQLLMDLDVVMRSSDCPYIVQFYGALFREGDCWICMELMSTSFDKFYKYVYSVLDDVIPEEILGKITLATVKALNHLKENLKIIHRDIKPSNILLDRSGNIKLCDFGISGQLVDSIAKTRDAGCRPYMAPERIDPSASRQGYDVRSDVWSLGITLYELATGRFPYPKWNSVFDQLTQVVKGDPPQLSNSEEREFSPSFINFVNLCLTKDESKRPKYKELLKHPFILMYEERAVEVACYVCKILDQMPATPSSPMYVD

[2] = molecular target: Calcium/calmodulin-dependent protein kinase type 1G (Homo sapiens) (UniProt Q96NX5); test: Selectivity interaction (Kinase panel (DSF assay)) EUB0001559a CAMK1G
Chain of Calcium/calmodulin-dependent protein kinase type 1G (Homo sapiens) (Q96NX5 whole entry): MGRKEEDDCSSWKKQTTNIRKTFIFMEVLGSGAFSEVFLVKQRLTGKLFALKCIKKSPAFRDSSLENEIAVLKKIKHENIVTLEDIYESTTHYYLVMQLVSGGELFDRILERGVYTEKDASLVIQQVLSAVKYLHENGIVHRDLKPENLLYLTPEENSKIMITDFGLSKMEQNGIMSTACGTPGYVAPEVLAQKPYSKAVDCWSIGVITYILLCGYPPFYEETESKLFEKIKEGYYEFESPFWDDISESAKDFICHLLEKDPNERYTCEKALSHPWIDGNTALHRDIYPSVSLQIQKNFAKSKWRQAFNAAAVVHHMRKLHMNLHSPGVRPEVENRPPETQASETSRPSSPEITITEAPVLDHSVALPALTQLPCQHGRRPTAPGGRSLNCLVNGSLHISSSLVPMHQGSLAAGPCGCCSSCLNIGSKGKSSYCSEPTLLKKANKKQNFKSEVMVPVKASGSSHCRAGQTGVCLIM

[3] = molecular target: T2, Mitogen-activated protein kinase kinase kinase 3 (Homo sapiens) (UniProt Q99759); test: Selectivity interaction (KinomeScan (DiscoverX)) EUB0000666a MAP3K3; details: at 10 µM
T2 sequence (whole entry): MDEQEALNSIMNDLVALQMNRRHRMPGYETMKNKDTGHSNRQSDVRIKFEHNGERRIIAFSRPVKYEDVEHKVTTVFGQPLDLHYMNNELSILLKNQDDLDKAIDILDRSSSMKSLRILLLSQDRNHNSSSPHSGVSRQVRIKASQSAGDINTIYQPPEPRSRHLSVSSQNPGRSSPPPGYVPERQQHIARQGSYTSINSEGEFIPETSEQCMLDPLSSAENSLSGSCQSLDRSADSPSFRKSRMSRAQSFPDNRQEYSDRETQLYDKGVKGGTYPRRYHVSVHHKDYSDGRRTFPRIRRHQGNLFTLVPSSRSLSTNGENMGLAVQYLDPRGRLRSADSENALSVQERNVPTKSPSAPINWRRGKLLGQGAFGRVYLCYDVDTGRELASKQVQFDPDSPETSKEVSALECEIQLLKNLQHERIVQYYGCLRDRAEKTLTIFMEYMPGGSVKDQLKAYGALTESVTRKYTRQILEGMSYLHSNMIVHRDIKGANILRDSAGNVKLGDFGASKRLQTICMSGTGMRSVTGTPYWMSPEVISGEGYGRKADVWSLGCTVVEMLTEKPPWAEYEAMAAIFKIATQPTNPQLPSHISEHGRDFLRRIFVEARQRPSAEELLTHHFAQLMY

[4] = molecular target: T3, Myosin-IIIb (Homo sapiens) (UniProt Q8WXR4); test: Selectivity interaction (Ambit KINOMEscan and KiNATiv profiling in Jurkat cells) EUB0000090b MYO3B; type: cell-based; details: at 1 µM
T3 sequence (whole entry): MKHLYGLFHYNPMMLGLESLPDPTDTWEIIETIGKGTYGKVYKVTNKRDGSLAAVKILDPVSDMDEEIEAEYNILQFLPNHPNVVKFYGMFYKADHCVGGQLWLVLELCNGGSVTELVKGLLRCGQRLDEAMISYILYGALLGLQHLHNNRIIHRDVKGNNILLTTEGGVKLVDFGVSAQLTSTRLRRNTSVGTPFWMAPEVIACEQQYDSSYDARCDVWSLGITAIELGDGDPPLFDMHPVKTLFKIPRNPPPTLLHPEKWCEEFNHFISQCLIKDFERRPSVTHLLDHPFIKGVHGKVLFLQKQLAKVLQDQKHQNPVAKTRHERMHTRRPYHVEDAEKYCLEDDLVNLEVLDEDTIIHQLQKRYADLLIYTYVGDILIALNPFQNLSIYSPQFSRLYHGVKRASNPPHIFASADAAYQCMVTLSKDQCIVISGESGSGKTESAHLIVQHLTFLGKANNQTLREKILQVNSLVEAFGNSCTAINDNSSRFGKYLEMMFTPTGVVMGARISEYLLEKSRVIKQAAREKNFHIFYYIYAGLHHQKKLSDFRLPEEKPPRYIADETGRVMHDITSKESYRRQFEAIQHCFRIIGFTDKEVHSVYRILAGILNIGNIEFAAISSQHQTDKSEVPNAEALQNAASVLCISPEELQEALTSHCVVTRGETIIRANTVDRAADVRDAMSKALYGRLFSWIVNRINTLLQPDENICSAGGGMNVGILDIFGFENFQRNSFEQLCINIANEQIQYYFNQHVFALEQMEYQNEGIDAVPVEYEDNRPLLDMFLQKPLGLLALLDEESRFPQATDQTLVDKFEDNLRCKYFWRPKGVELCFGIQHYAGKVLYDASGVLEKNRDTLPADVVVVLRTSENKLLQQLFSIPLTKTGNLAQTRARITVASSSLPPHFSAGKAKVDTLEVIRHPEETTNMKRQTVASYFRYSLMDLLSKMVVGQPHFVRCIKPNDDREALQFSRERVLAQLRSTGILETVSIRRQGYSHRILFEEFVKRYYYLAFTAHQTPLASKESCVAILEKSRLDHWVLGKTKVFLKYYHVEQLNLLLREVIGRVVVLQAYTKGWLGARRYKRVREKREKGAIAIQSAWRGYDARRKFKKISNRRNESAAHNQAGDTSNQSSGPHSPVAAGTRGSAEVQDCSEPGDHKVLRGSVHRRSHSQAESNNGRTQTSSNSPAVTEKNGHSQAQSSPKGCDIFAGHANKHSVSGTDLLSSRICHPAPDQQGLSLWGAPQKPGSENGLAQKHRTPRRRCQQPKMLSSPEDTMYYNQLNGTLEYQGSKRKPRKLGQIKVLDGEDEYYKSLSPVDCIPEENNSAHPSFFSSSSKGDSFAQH

## C=CC(=O)Nc1ccc(C(=O)Nc2[nH]nc3c2CN(C(=O)N[C@H](CN(C)C)c2ccccc2)C3(C)C)cc1
[1]
  % of engagement: 3.9%

## CN(C(=O)c1cnn2cccnc12)c1cc2c(cc1N1CCOCC1)C(=O)N(C[C@@H](F)C(C)(C)O)C2
[2]
  dTM: -0.6 K

## O=C(NOC[C@H](O)CO)c1ccc(F)c(F)c1Nc1ccc(I)cc1F
[3]
  % of control: 98%

## CN(C)C/C=C/C(=O)Nc1ccc(C(=O)N2CCCC(Nc3ncc(Cl)c(-c4c[nH]c5ccccc45)n3)C2)cc1 (centres undefined)
[4]
  % of control: 100%
